From US20260232767A1, “INTERLEUKIN-23 RECEPTOR ANTAGONIST PEPTIDES FOR USE IN THE TREATMENT OF PSORIASIS” (Janssen Pharmaceutica NV, priority 2023, published 2026)

Tested on: subjects with moderate-to-severe plaque psoriasis
Test: Safety, adverse events, Example 2 through Week 56
Format: in vivo, human
From the text: The LTE safety analysis was based on randomized participants in Example who entered the present long-term extension study and received at least one dose of study intervention (including a partial dose) during the study period.

[1] = 25 mg BID, Week 16 through Week 56
[2] = 25 mg BID, LTE Safety analysis set

CC(=O)NCCCC[C@@H]1NC(=O)[C@H](Cc2c[nH]c3c(C)cccc23)NC(=O)[C@H]([C@@H](C)O)NC(=O)[C@H](CC(N)=O)NC(=O)[C@@H](NC(C)=O)C(C)(C)SSC(C)(C)[C@@H](C(=O)N[C@@H](Cc2ccc(OCCN)cc2)C(=O)N[C@@H](Cc2ccc3ccccc3c2)C(=O)NC2(C(=O)N[C@@H](CCC(=O)O)C(=O)N[C@@H](CC(N)=O)C(=O)N[C@@H](Cc3cccnc3)C(=O)N(C)CC(N)=O)CCOCC2)NC1=O [IL-23 receptor antagonist peptide, Ac-[Pen]*-N-T-[W(7-Me)]-[Lys(Ac)]-[Pen]*-Phe[4-(2-aminoethoxy)]-[2-Nal]-[THP]-E-N-[3-Pal]-Sarc-NH2 (*[Pen]-[Pen]* formdisulfidebond)]
(2.5%): Subjects with treatment-emergent AE: Endocrine disorders (%) [1] | Subjects with treatment-emergent AE: Eye disorders (%) [1] | Subjects with treatment-emergent AE: Eyelid skin dryness (%) [1] | Subjects with treatment-emergent AE: Goiter (%) [1] | Subjects with treatment-emergent AE: Insomnia (%) [1] | Subjects with treatment-emergent AE: Psychiatric disorders (%) [1] | Subjects with treatment-emergent AE: Ventricular dysfunction (%) [1]
0: Subjects with Bronchitis bacterial | Number of subjects with treatment-emergent AE: Cholelithiasis [1] | Number of subjects with treatment-emergent AE: Ear and labyrinth disorders [1] | Number of subjects with treatment-emergent AE: Hepatobiliary disorders [1] | Number of subjects with treatment-emergent AE: Hypertransaminasemia [1] | Number of subjects with treatment-emergent AE: Immune system disorders [1] | Number of subjects with treatment-emergent AE: Ocular cyst [1] | Number of subjects with treatment-emergent AE: Retinal vein occlusion [1] | Number of subjects with treatment-emergent AE: Seasonal allergy [1] | Number of subjects with treatment-emergent AE: Vertigo [1] | Subjects with 1 or more Serious Infections and infestations [2] | Subjects with adverse event: Alanine aminotransferase increased [2] | Subjects with adverse event: Arthralgia [2] | Subjects with adverse event: Aspartate aminotransferase increased [2] | Subjects with adverse event: Vomiting [2] | Subjects with serious adverse event: Cerebrovascular accident [2] | Subjects with serious adverse event: Coronary artery disease [2] | Subjects with serious adverse event: Diverticulitis [2] | Subjects with serious adverse event: Foot deformity [2] | Subjects with serious adverse event: Intervertebral disc protrusion [2] | Subjects with serious adverse event: Non-cardiac chest pain [2] | Subjects with serious adverse event: Uterine leiomyoma [2] | Subjects with AE leading to discontinuation: Alanine aminotransferase increased (25 mg BID, Week 16-56) | Subjects with AE leading to discontinuation: Aspartate aminotransferase increased (25 mg BID, Week 16-56) | Subjects with AE leading to discontinuation: Ear and labyrinth disorders (25 mg BID, Week 16-56) | Subjects with AE leading to discontinuation: Gamma-glutamyltransferase increased (25 mg BID, Week 16-56) | Subjects with AE leading to discontinuation: Investigations (25 mg BID, Week 16-56) | Subjects with AE leading to discontinuation: Vertigo (25 mg BID, Week 16-56) | Subjects with AE leading to discontinuation: Vomiting (25 mg BID, Week 16-56) | Subjects with COVID-19 associated AE of interest: SARS-CoV-2 test positive (25 mg BID, Week 16-56) | Subjects with treatment-emergent AE: Alanine aminotransferase increased (25 mg BID, Week 16-56) | Subjects with treatment-emergent AE: Arthralgia (25 mg BID, Week 16-56) | Subjects with treatment-emergent AE: Aspartate aminotransferase increased (25 mg BID, Week 16-56) | Subjects with treatment-emergent AE: Vomiting (25 mg BID, Week 16-56) | Subjects with treatment-emergent serious AE: Cerebrovascular accident (25 mg BID, Week 16-56) | Subjects with treatment-emergent serious AE: Coronary artery disease (25 mg BID, Week 16-56) | Subjects with treatment-emergent serious AE: Diverticulitis (25 mg BID, Week 16-56) | Subjects with treatment-emergent serious AE: Foot deformity (25 mg BID, Week 16-56) | Subjects with treatment-emergent serious AE: General disorders and administration site conditions (25 mg BID, Week 16-56) | Subjects with treatment-emergent serious AE: Infections and infestations (25 mg BID, Week 16-56) | Subjects with treatment-emergent serious AE: Intervertebral disc protrusion (25 mg BID, Week 16-56) | Subjects with treatment-emergent serious AE: Musculoskeletal and connective tissue disorders (25 mg BID, Week 16-56) | Subjects with treatment-emergent serious AE: Neoplasms benign, malignant and unspecified (incl cysts and polyps) (25 mg BID, Week 16-56) | Subjects with treatment-emergent serious AE: Nervous system disorders (25 mg BID, Week 16-56) | Subjects with treatment-emergent serious AE: Non-cardiac chest pain (25 mg BID, Week 16-56) | Subjects with treatment-emergent serious AE: Uterine leiomyoma (25 mg BID, Week 16-56) | Actinic keratosis: number of subjects (25 mg BID, through Week 56) | Alopecia: number of subjects (25 mg BID, through Week 56) | Asthma: number of subjects (25 mg BID, through Week 56) | Atrioventricular block first degree: number of subjects (25 mg BID, through Week 56) | Basal cell carcinoma: number of subjects (25 mg BID, through Week 56) | Blood and lymphatic system disorders: number of subjects (25 mg BID, through Week 56) | Bronchitis chronic: number of subjects (25 mg BID, through Week 56) | Bundle branch block right: number of subjects (25 mg BID, through Week 56) | Cholelithiasis: number of subjects (25 mg BID, through Week 56) | Chronic obstructive pulmonary disease: number of subjects (25 mg BID, through Week 56) | Coronary artery disease: number of subjects (25 mg BID, through Week 56) | Cough: number of subjects (25 mg BID, through Week 56) | Decreased appetite: number of subjects (25 mg BID, through Week 56) | Depression: number of subjects (25 mg BID, through Week 56) | Dermal cyst: number of subjects (25 mg BID, through Week 56) | Dermatitis acneiform: number of subjects (25 mg BID, through Week 56) | Diffuse alopecia: number of subjects (25 mg BID, through Week 56) | Dysuria: number of subjects (25 mg BID, through Week 56) | Ear and labyrinth disorders: number of subjects (25 mg BID, through Week 56) | Fatigue: number of subjects (25 mg BID, through Week 56) | Haemochromatosis: number of subjects (25 mg BID, through Week 56) | Hand dermatitis: number of subjects (25 mg BID, through Week 56) | Hematuria: number of subjects (25 mg BID, through Week 56) | Hepatobiliary disorders: number of subjects (25 mg BID, through Week 56) | Hypercholesterolemia: number of subjects (25 mg BID, through Week 56) | Hyperglycemia: number of subjects (25 mg BID, through Week 56) | Hypertransaminasemia: number of subjects (25 mg BID, through Week 56) | Hypertriglyceridemia: number of subjects (25 mg BID, through Week 56) | Hypoacusis: number of subjects (25 mg BID, through Week 56) | Immune system disorders: number of subjects (25 mg BID, through Week 56) | Intertrigo: number of subjects (25 mg BID, through Week 56)
(2.4%): Acrochordon: % of subjects (25 mg BID, through Week 56) | Asthenia: % of subjects (25 mg BID, through Week 56) | Cardiac disorders: % of subjects (25 mg BID, through Week 56) | Chills: % of subjects (25 mg BID, through Week 56) | Dermatitis contact: % of subjects (25 mg BID, through Week 56) | Diabetes mellitus: % of subjects (25 mg BID, through Week 56) | Endocrine disorders: % of subjects (25 mg BID, through Week 56) | Eye disorders: % of subjects (25 mg BID, through Week 56) | Eyelid skin dryness: % of subjects (25 mg BID, through Week 56) | Goiter: % of subjects (25 mg BID, through Week 56) | Hyperlipidemia: % of subjects (25 mg BID, through Week 56) | Influenza like illness: % of subjects (25 mg BID, through Week 56) | Insomnia: % of subjects (25 mg BID, through Week 56)
(4.9%): General disorders and administration site conditions: % of subjects (25 mg BID, through Week 56) | Hypertension: % of subjects (25 mg BID, through Week 56)
1: Number of subjects with treatment-emergent AE: Endocrine disorders [1] | Number of subjects with treatment-emergent AE: Eye disorders [1] | Number of subjects with treatment-emergent AE: Eyelid skin dryness [1] | Number of subjects with treatment-emergent AE: Goiter [1] | Number of subjects with treatment-emergent AE: Insomnia [1] | Number of subjects with treatment-emergent AE: Psychiatric disorders [1] | Acrochordon: number of subjects (25 mg BID, through Week 56) | Asthenia: number of subjects (25 mg BID, through Week 56) | Cardiac disorders: number of subjects (25 mg BID, through Week 56) | Chills: number of subjects (25 mg BID, through Week 56) | Dermatitis contact: number of subjects (25 mg BID, through Week 56) | Diabetes mellitus: number of subjects (25 mg BID, through Week 56) | Endocrine disorders: number of subjects (25 mg BID, through Week 56) | Eye disorders: number of subjects (25 mg BID, through Week 56) | Eyelid skin dryness: number of subjects (25 mg BID, through Week 56) | Goiter: number of subjects (25 mg BID, through Week 56) | Hyperlipidemia: number of subjects (25 mg BID, through Week 56) | Influenza like illness: number of subjects (25 mg BID, through Week 56) | Insomnia: number of subjects (25 mg BID, through Week 56)
2: General disorders and administration site conditions: number of subjects (25 mg BID, through Week 56) | Hypertension: number of subjects (25 mg BID, through Week 56)
